# Reference: patent US6280768A, “Berberine alkaloids as a treatment for chronic protozoally induced diarrhea” (PRM Pharmaceuticals, Inc., priority 1997, dated 2001)
# Read-outs that look alike come from different tables or passages of the source.
# Tests used:
# G.lamblia = assay: In vitro growth inhibition of Giardia lamblia; assay type: cell-based; conditions: Giardia duodenalis; for activity at 30 µg/mL / activity at 62 µg/mL / activity at 125 µg/mL / activity at 250 µg/mL / activity at 500 µg/mL / activity at 1000 µg/mL: 48 h; for activity at 30 µg/mL: 30 μg/ml; for activity at 62 µg/mL: 62 μg/ml; for activity at 125 µg/mL: 125 μg/ml; for activity at 250 µg/mL: 250 μg/ml; for activity at 500 µg/mL: 500 μg/ml; for activity at 1000 µg/mL: 1000 μg/ml
# Description: (§1) The protozoa tested were established strains of 3 extracellular protozoan parasites; (1) Giardia lamblia, (2) Trichomonas vaginalis, (3) Entamoeba histolytica, and the intracellular microsporidian parasite (4) Encephalitozoon intestinalis.
# (§2) Culture conditions and media for (1)-(3) and methods for assaying drug susceptibility were as described in Katiyar, S K and Edlind T D, Enhanced Antiparasitic Activity of Lipophilic Tetracyclines: Role of Uptake, Antimicrob. Agents Chemother., vol. 35:2198-2202 (1991), incorporated herein by reference.
# (§3) Cultures of the extracellular parasites were started from frozen stocks and passaged several times over a 2-3 week period to ensure viability, maximal growth rate, and lack of contamination. On day 1 of the assay, log phase cultures were diluted to 5×10^4 cells/ml in fresh medium and aliquoted to 2 ml vials, which were filled to maintain anaerobic conditions. The berberine was dissolved and diluted in water to various concentrations and then added to the cultures. "negative controls" received the vehicle alone.
# (§4) Cultures were incubated at 37° C. with slow rotation. After 48 hours (for T. vaginalis and G. lamblia) and 72 hours (for E. histolytica), cell numbers were determined using a hemocytometer. The concentration of compound inhibiting growth 50% (IC50) relative to controls was estimated from dose response plots. The assays were repeated at least twice.
# (§5) Initially, the berberine was tested over a wide range of concentrations (0.1, 1, 10, 100 and 1000 μg/ml).
# T.vaginalis = assay: In vitro growth inhibition of Trichomonas vaginalis; assay type: cell-based; conditions: for activity at 30 µg/mL / activity at 62 µg/mL / activity at 125 µg/mL / activity at 250 µg/mL / activity at 500 µg/mL / activity at 1000 µg/mL: 48 h; for activity at 30 µg/mL: 30 μg/ml; for activity at 62 µg/mL: 62 μg/ml; for activity at 125 µg/mL: 125 μg/ml; for activity at 250 µg/mL: 250 μg/ml; for activity at 500 µg/mL: 500 μg/ml
# Description: as §1, §2, §3, §4, §5
# E.histolytica = assay: In vitro growth inhibition of Entamoeba histolytica; assay type: cell-based; conditions: for activity at 30 µg/mL: 30 μg/ml; for activity at 125 µg/mL: 125 μg/ml; for activity at 500 µg/mL: 500 μg/ml; for activity at 1000 µg/mL: 1000 μg/ml
# Description: as §1, §2, §3, §4, §5
# E. intestinalis = assay: In vitro growth (spore numbers) of E. intestinalis in infected Vero cells; assay type: cell-based, Encephalitozoon intestinalis
# Description: as §1
# Cultures of E. intestinalis infected African green monkey kidney (Vero) cells were kindly provided by G. S. Visvesvara, CDC, Atlanta, Ga. The E. intestinalis was originally isolated from the urine of an AIDS patient (J. Clin. Microbiol. 33:930-936, 1995).
# Cells were grown in T25 flasks at 37° C. in a humidified CO2 incubator, and subcultured when confluent (every 3-4 days). The medium was MEM supplemented with Earle's salts, L-glutamine, 5% heat-inactivated fetal bovine serum, fungizone (2 μg/ml) and gentamicin (50 μg/ml). E. intestinalis spores were prepared by centrifugation of infected cell medium (3-4 days old) at 2000×g for 15 min, followed by suspension in fresh medium to give 1-20×10^4 spores/ml (determined with a hemocytometer). […]
# Every 72-96 h after infection, the medium was completely removed, discarded, and replaced with fresh medium plus berberine. The medium from the 4th change (2-3 weeks post infection) was collected into tubes and spore numbers were determined in a hemocytometer. […] Consequently, spore numbers after 3-4 medium changes provided a quantitative measure of the effects of berberine on microsporidia growth.
# diarrhea = assay: Prophylactic use of berberines in HIV infected patients (Example 7); assay type: in vivo, human; conditions: low dose of Example 2, two months, 25 patients
# Experimental: Twenty five (25) HIV infected patients, 18 years of age or older, not presenting with chronic diarrhea, are selected. Blood specimens are evaluated to confirm that each patient is HIV seropositive.
# Each of the twenty five (25) patients receives a treatment with berberine according to the low dose of Example 2 for a period of two months.
# [1] = oral, high doses; cited from earlier work
# microsporidia [2] = assay: Protoberberines in a hamster animal model of microsporidial chronic diarrhea (Example 5); assay type: in vivo; conditions: 52 mg/kg/day oral; for condition of the hamsters / diarrhea: after 10 days; for presence of microsporidia in intestinal biopsy: following therapy
# Experimental: (§6) Ten hamsters suffering from chronic diarrhea caused by microsporidia are randomized into two groups of 5 hamsters. One group receives the protoberberine palmatine and the second group receives the protoberberine dihydroberberine. The protoberberines are administered orally at a dose rate of 52 mg/kg/day for ten (10) days.
# microsporidia [3] = assay: Protoberberines in a mouse animal model of microsporidial chronic diarrhea (Example 6); assay type: in vivo; conditions: 52 mg/kg/day oral; for condition of the mice / diarrhea: after 10 days; for presence of microsporidia in intestinal biopsy: following therapy
# Experimental: as §6, with “mice” for “hamsters”, “mice.” for “hamsters.”, “jatrorrhizine.” for “dihydroberberine.”
# cryptosporidia = conditions: cited from earlier work
# Cryptosporidium parvum = conditions: in vivo; cited from earlier work
# [4] = growth, 48 hours, estimated from dose response plots
smiles,measurement,setting,value
"COc1ccc2cc3[n+](cc2c1OC)CCc1cc2c(cc1-3)OCO2.Cl [berberine hydrochloride, 5,6-Dihydro-9,10-dimethoxybenzo[g]-1,3-benzodioxolo[5,6-a]quinolizinium hydrochloride]",activity at 30 µg/mL,G.lamblia; Exp. 1,99%
same,activity at 30 µg/mL,G.lamblia; Exp. 2,97%
same,activity at 62 µg/mL,G.lamblia; Exp. 1,89%
same,activity at 62 µg/mL,G.lamblia; Exp. 2,85%
same,activity at 62 µg/mL,G.lamblia; Exp. 3,88%
same,activity at 125 µg/mL,G.lamblia; Exp. 1,79%
same,activity at 125 µg/mL,G.lamblia; Exp. 2,69%
same,activity at 125 µg/mL,G.lamblia; Exp. 3,75%
same,activity at 250 µg/mL,G.lamblia; Exp. 1,63%
same,activity at 250 µg/mL,G.lamblia; Exp. 2,59%
same,activity at 250 µg/mL,G.lamblia; Exp. 3,52%
same,activity at 500 µg/mL,G.lamblia; Exp. 1,40%
same,activity at 500 µg/mL,G.lamblia; Exp. 2,44%
same,activity at 500 µg/mL,G.lamblia; Exp. 3,32%
same,activity at 1000 µg/mL,G.lamblia; Exp. 1,9%
same,activity at 1000 µg/mL,G.lamblia; Exp. 2,20%
same,activity at 1000 µg/mL,G.lamblia; Exp. 3,5%
same,IC50,G.lamblia; [4],350 µg/mL
same,activity at 30 µg/mL,T.vaginalis; Exp. 1,93%
same,activity at 30 µg/mL,T.vaginalis; Exp. 2,99%
same,activity at 30 µg/mL,T.vaginalis; Exp. 3,96%
same,activity at 62 µg/mL,T.vaginalis; Exp. 1,90%
same,activity at 62 µg/mL,T.vaginalis; Exp. 2,98%
same,activity at 62 µg/mL,T.vaginalis; Exp. 3,98%
same,activity at 125 µg/mL,T.vaginalis; Exp. 1,59%
same,activity at 125 µg/mL,T.vaginalis; Exp. 2,60%
same,activity at 125 µg/mL,T.vaginalis; Exp. 3,60%
same,activity at 250 µg/mL,T.vaginalis; Exp. 1,20%
same,activity at 250 µg/mL,T.vaginalis; Exp. 2,28%
same,activity at 250 µg/mL,T.vaginalis; Exp. 3,45%
same,activity at 500 µg/mL,T.vaginalis; Exp. 1,2%
same,activity at 500 µg/mL,T.vaginalis; Exp. 2,3%
same,activity at 500 µg/mL,T.vaginalis; Exp. 3,22%
same,activity at 1000 µg/mL,"T.vaginalis; 1000 μg/ml, Exp. 1, read-out: % growth",1%
same,activity at 1000 µg/mL,"T.vaginalis; 1000 μg/ml, Exp. 2, read-out: % growth",1%
same,activity at 1000 µg/mL,"T.vaginalis; read-out: % growth, 1000 μg/ml, Exp. 3",6.8%
same,IC50,T.vaginalis; [4],170 µg/mL
same,activity at 30 µg/mL,"E.histolytica; 72 h, Exp. 1",102%
same,activity at 30 µg/mL,"E.histolytica; 72 h, Exp. 2",101%
same,activity at 62 µg/mL,"E.histolytica; 72 h, 62 μg/ml, Exp. 2",90%
same,activity at 125 µg/mL,"E.histolytica; 72 h, Exp. 1",100%
same,activity at 125 µg/mL,"E.histolytica; 72 h, Exp. 2",101%
same,activity at 250 µg/mL,"E.histolytica; 72 h, 250 μg/ml, Exp. 2",101%
same,activity at 500 µg/mL,"E.histolytica; 72 h, Exp. 1",100%
same,activity at 500 µg/mL,"E.histolytica; 72 h, Exp. 2",96%
same,activity at 1000 µg/mL,"E.histolytica; 72 h, Exp. 1",72%
same,activity at 1000 µg/mL,"E.histolytica; 72 h, Exp. 2",76%
same,IC50,"E.histolytica; growth, 72 hours, estimated from dose response plots",> 1000 µg/mL
same,activity against the microsporidium E. intestinalis,E. intestinalis,showed activity against the microsporidium E. intestinalis
"COc1ccc2cc3[n+](cc2c1OC)CCc1cc2c(cc1-3)OCO2 [berberine, 5,6-Dihydro-9,10-dimethoxybenzo[g]-1,3-benzodioxolo[5,6-a]quinolizinium]",tolerability / adverse reactions,diarrhea,all of the patients tolerate the treatment well with no or minimal adverse reactions
same,toxicity,[1],nontoxic at high doses
COc1ccc2c(c1OC)CN1CCc3cc4c(cc3C1=C2)OCO4 [dihydroberberine],condition of the hamsters,microsporidia [2],improved
same,diarrhea,microsporidia [2],none of the hamsters have diarrhea
same,presence of microsporidia in intestinal biopsy,microsporidia [2],does not reveal the presence of microsporidia
COc1cc2c(cc1O)CC[n+]1cc3c(OC)c(OC)ccc3cc1-2 [jatrorrhizine],condition of the mice,microsporidia [3],improved
same,diarrhea,microsporidia [3],none of the mice have diarrhea
same,presence of microsporidia in intestinal biopsy,microsporidia [3],does not reveal the presence of microsporidia
C[C@@H](O)[C@@H]1NC(=O)[C@H](CCCCN)NC(=O)[C@@H](Cc2c[nH]c3ccccc23)NC(=O)[C@H](Cc2ccccc2)NC(=O)[C@@H](NC(=O)[C@H](N)Cc2ccccc2)CSSC[C@@H](C(=O)N[C@H](CO)[C@@H](C)O)NC1=O [octreotide],control of gastrointestinal secretion,cryptosporidia; AIDS patients,control the voluminous gastrointestinal secretion
same,return of diarrhea,cryptosporidia; following cessation of treatment,diarrhea promptly returns
COc1cc2c(cc1OC)-c1cc3ccc(OC)c(OC)c3c[n+]1CC2 [palmatine],condition of the hamsters,microsporidia [2],improved
same,diarrhea,microsporidia [2],none of the hamsters have diarrhea
same,presence of microsporidia in intestinal biopsy,microsporidia [2],does not reveal the presence of microsporidia
same,condition of the mice,microsporidia [3],improved
same,diarrhea,microsporidia [3],none of the mice have diarrhea
same,presence of microsporidia in intestinal biopsy,microsporidia [3],does not reveal the presence of microsporidia
NC[C@@H]1O[C@H](O[C@H]2[C@@H](O)[C@H](O[C@@H]3[C@@H](O)[C@H](N)C[C@H](N)[C@H]3O[C@H]3O[C@H](CO)[C@@H](O)[C@H](O)[C@H]3N)O[C@@H]2CO)[C@H](N)[C@@H](O)[C@@H]1O [paromomycin],relapse after cessation of treatment,Cryptosporidium parvum,common
